In ChEMBL document CHEMBL5053491, “Rational designed highly sensitive NQO1-activated near-infrared fluorescent probe combined with NQO1 substrates in vivo: An innovative strategy for NQO1-overexpressing cancer theranostics” (Eur J Med Chem, 2021):
≈ marks a conversion by molar mass, not a printed value.

Legend:
[1] = molecular target: NAD(P)H dehydrogenase [quinone] 1 (Homo sapiens) (UniProt P15559); assay: Substrate activity at recombinant human NQO1 assessed as enzyme activity by measuring oxidation of NADPH incubated for 5 mins measured per micromol of NADPH by NADPH recycling assay
Chain of NAD(P)H dehydrogenase [quinone] 1 (Homo sapiens) (P15559 whole entry): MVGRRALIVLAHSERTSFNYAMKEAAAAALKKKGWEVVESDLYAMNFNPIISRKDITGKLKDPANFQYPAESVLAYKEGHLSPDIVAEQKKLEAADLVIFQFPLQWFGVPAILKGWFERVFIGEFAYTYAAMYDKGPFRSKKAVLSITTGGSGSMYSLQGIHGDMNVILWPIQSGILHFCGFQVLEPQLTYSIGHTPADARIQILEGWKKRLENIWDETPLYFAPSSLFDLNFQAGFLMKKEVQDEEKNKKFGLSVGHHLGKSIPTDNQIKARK

[2] = Stability of compound in PBS at pH 4 to 9 assessed as compound remaining at 37 degree C measured after 24 hrs by HPLC analysis; assay type: physicochemical; conditions: buffer, pH 4, 24 h
[3] = Stability of compound in human plasma assessed as compound remaining at 37 degree C measured after 24 hrs by HPLC analysis; assay type: ADME, cell-free
[4] = Stability of compound in mouse plasma assessed as compound remaining at 37 degree C measured after 24 hrs by HPLC analysis; assay type: ADME, cell-free
[5] = Stability of compound in rat plasma assessed as compound remaining at 37 degree C measured after 24 hrs by HPLC analysis; assay type: ADME, cell-free
A549 [6] = assay: Cytotoxicity against human A549 cells assessed as growth inhibition measured after 72 hrs by MTT assay; assay type: functional; parameters: scale not given: the % may be the effect or the level left
[7] = Drug uptake in NQO1 rich human A549 cells at 10 uM incubated for 20 mins by confocal microscopy; assay type: ADME, cell-based; conditions: a549, 20 min
[8] = Drug uptake in NQO1-deficient human NCI-H596 cells at 10 uM incubated for 20 mins by confocal microscopy; assay type: ADME, cell-based; conditions: nci-h596, 20 min
[9] = Water solubility of compound by HPLC analysis; assay type: physicochemical
[10] = Drug uptake in BALB/c nude mouse infected with human A549 cells at 5 mg/kg, iv measured upto 15 mins by fluorescence spectrophotometric analysis; assay type: ADME, organism-based; conditions: in vivo, 0.25 h
A549 [11] = assay: Antitumor activity against human A549 cells xenografted in BALB/c nude mouse assessed as fluorescence intensity at 30 mg/kg, ip administered for 21 days; assay type: functional; conditions: time 21 day
A549 [12] = assay: Antitumor activity against human A549 cells xenografted in BALB/c nude mouse assessed as tumor inhibition rate at 30 mg/kg, ip administered for 21 days; assay type: functional; parameters: scale not given: the % may be the effect or the level left; conditions: time 21 day
A549 [13] = assay: Antitumor activity against human A549 cells xenografted in BALB/c nude mouse assessed as tumor volume change at 30 mg/kg, ip administered for 21 days; assay type: functional; conditions: time 21 day

## CC1=C(CCC(=O)O)C(=O)c2ccccc2C1=O
[1]
  Activity: 1080 µmol/min

## CC(C)(CC(=O)O)C1=CC(=O)c2ccccc2C1=O
[1]
  Activity: 1220 µmol/min

## CC1=C(C(C)(C)CC(=O)O)C(=O)c2ccccc2C1=O
[1]
  Activity: 1480 µmol/min

## CC1=C(C)C(=O)C(C(C)(C)CC(=O)O)=C(C)C1=O
[1]
  Activity: 1070 µmol/min

## CC1=C(C(C)(C)CC(=O)N(C)c2ccc(COC(=O)N3c4ccc(N(C)C)cc4Sc4cc(N(C)C)ccc43)cc2)C(=O)c2ccccc2C1=O
[2]
  Stability: Stable
[3]
  Stability: Stable
[4]
  Stability: Stable
[5]
  Stability: Stable
A549 [6]
  Activity: >80%
[7]
  Drug uptake: Active
[8]
  Drug uptake: Not Active
[9]
  solubility: 6.5 µg/mL (≈ 9.25 µM)
[10]
  Drug uptake: Active
A549 [11]
  Activity: 75.6%

## CC1(C)CCC2=C(O1)c1ccccc1C(=O)C2=O [LAPACHONE]
A549 [12]
  Activity: 67.7%
A549 [13]
  Activity: 69.1%

## O=C(O)CCC1=CC(=O)c2ccccc2C1=O
[1]
  Activity: 900 µmol/min

## O=c1[nH]cc(F)c(=O)[nH]1 [FLUOROURACIL]
A549 [11]
  Activity: 75.7%

## Cc1cc2c(cc1C)-c1oc(CN3CCN(C)CC3)c(C)c1C(=O)C2=O
A549 [12]
  Activity: 79.8%
A549 [13]
  Activity: 77%

## CC1=C(C)C(=O)C(C(C)(C)CC(=O)N(C)c2ccc(COC(=O)N3c4ccc(N(C)C)cc4Sc4cc(N(C)C)ccc43)cc2)=C(C)C1=O
[10]
  Drug uptake: Not Active
